Consider nine molecules from patent publication US20260015350A1, “AZAQUINAZOLINE PAN-KRAS INHIBITORS” (Mirati Therapeutics, Inc., priority 2022, published 2026).

Experiment [1] deals with T1, KRas^G12C (Homo sapiens, UniProt P01116, G12C).
T1 construct: Biotinylated KRas (corresponding to amino acids 1-169, produced at Accelegan Inc.); biotin (biotinylated); purchased Accelegan Inc
Briefly: KRas binding assay (TR-FRET tracer displacement), KRas G12C. The settings on record: TR-FRET tracer displacement, KRas G12C. For orientation: In TR-FRET formats the signal depends on donor and acceptor labels being close together.

Experiment [2] concerns the target T2, KRas^G12V (Homo sapiens, UniProt P01116, G12V).
T2 construct: Biotinylated KRas (corresponding to amino acids 1-169, produced at Accelegan Inc.); biotin (biotinylated); purchased Accelegan Inc
The experiment in a line: KRas binding assay (TR-FRET tracer displacement), KRas G12V.

The subject of experiment [3] is KRas-mediated phosphorylation of ERK in AsPC-1 cells. The experiment in a line: Inhibition of KRas-mediated phosphorylation of ERK (Cisbio HTRF pERK), AsPC-1 cells. Type of experiment: cell-based. The settings on record: Homo sapiens, ASPC1, AsPC-1 cells; HTRF pERK. In a few lines: (§1)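 A cell-based HTRF pERK assay: ten-point, threefold titrations beginning at 10 uM were applied for 3 hrs, with 0.2 uM Trametinib wells as the minimum control. Cells were lysed cold, and lysate was incubated with the antibody pair for 2 hrs before reading.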

In experiment [4] the test system is KRas-mediated phosphorylation of ERK in A549 cells. The experiment in a line: Inhibition of KRas-mediated phosphorylation of ERK (Cisbio HTRF pERK), A549 cells. It is filed as cell-based. As to conditions: Homo sapiens, HTRF pERK. In a few lines:
(§2)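 Each compound was tested at 10 concentrations, threefold apart with 10 uM the highest, for 3 hrs on 6,000 seeded cells; final DMSO was 0.8% and Trametinib (0.2 uM) served as Min control. Lysed cells were analysed for pERK by HTRF.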

For experiment [5], the system named is KRas-mediated phosphorylation of ERK in PSN1 cells. The experiment in a line: Inhibition of KRas-mediated phosphorylation of ERK (Cisbio HTRF pERK), PSN1 cells. It is filed as cell-based. As to conditions: Homo sapiens. In a few lines: (§3)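 Overnight culture at 37° C./5% CO2 in RPMI containing 10% FBS, seeded 6,000 cells per well, preceded the assay. A covered 4-hour incubation at room temperature followed, then HTRF signal for phosphorylated ERK was measured.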

In experiment [6] the test system is KRas-mediated phosphorylation of ERK in H727 cells. Briefly: Inhibition of KRas-mediated phosphorylation of ERK (Cisbio HTRF pERK), H727 cells. As to conditions: Homo sapiens, NCI-H727, H727 cells; HTRF pERK. Type of experiment: cell-based. In a few lines:
as §1

For experiment [7], the target named is T3, KRas^WT (Homo sapiens, UniProt P01116).
T3 construct: Biotinylated KRas (corresponding to amino acids 1-169, produced at Accelegan Inc.); biotin (biotinylated); purchased Accelegan Inc
The experiment in a line: KRas binding assay (TR-FRET tracer displacement), KRas WT. The settings on record: TR-FRET tracer displacement, KRas WT.

The test system of experiment [8] is KRas-mediated phosphorylation of ERK in MKN1 cells. The experiment in a line: Inhibition of KRas-mediated phosphorylation of ERK (Cisbio HTRF pERK), MKN1 cells. Type of experiment: cell-based. The settings on record: Homo sapiens, MKN-1. In a few lines: as §3
The test system of experiment [9] is KRas-mediated phosphorylation of ERK in H460 cells. Briefly: Inhibition of KRas-mediated phosphorylation of ERK (Cisbio HTRF pERK), H460 cells. It is filed as cell-based. The settings on record: Homo sapiens, NCI-H460, HTRF pERK. In a few lines:
as §1

The subject of experiment [10] is KRas-mediated phosphorylation of ERK in H358 cells. The experiment in a line: Inhibition of KRas-mediated phosphorylation of ERK (Cisbio HTRF pERK), H358 cells. Type of experiment: cell-based. As to conditions: Homo sapiens, NCI-H358, HTRF pERK. In a few lines: as §1
The target of experiment [11] is T4, KRas^G12S (Homo sapiens, UniProt P01116, G12S).
T4 construct: Biotinylated KRas (corresponding to amino acids 1-169, produced at Accelegan Inc.); biotin (biotinylated); purchased Accelegan Inc
The experiment in a line: KRas binding assay (TR-FRET tracer displacement), KRas G12S. As to conditions: TR-FRET tracer displacement, KRas G12S.

Experiment [12] deals with T5, KRas^G12D (Homo sapiens, UniProt P01116, G12D).
T5 construct: Biotinylated KRas (corresponding to amino acids 1-169, produced at Accelegan Inc.); biotin (biotinylated); purchased Accelegan Inc
Briefly: KRas binding assay (TR-FRET tracer displacement), KRas G12D.

Experiment [13] relates to KRas-mediated phosphorylation of ERK in HCT116 cells. The experiment in a line: Inhibition of KRas-mediated phosphorylation of ERK (Cisbio HTRF pERK), HCT116 cells. As to conditions: Homo sapiens, HCT-116, HTRF pERK. Type of experiment: cell-based. In a few lines:
as §2

One may read the IC50 as the concentration that inhibits the measured activity by half. Read a high IC50 as weaker potency in that assay.

T2 sequence (P01116 1-169 isoform P01116-2 G12V): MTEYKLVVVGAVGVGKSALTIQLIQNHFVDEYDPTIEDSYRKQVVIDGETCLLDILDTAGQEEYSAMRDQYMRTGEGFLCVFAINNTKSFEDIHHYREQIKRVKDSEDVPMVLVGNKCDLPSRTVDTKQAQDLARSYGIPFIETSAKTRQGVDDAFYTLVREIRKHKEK
T1 sequence (P01116 1-169 isoform P01116-2 G12C): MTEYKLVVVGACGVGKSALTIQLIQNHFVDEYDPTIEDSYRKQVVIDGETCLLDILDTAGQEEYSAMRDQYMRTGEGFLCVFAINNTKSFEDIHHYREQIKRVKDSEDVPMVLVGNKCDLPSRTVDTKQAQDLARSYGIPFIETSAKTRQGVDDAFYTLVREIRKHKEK
T5 sequence (P01116 1-169 isoform P01116-2 G12D): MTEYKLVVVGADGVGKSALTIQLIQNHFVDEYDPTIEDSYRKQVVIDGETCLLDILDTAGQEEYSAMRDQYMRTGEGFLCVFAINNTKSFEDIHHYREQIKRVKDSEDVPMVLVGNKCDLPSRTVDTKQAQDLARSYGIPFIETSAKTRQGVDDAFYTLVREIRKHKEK
T4 sequence (P01116 1-169 isoform P01116-2 G12S): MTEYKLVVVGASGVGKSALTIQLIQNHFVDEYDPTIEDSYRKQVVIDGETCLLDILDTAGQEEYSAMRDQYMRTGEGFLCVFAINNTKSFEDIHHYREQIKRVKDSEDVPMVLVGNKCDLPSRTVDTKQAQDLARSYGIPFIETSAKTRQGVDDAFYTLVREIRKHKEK
T3 sequence (P01116 1-169 isoform P01116-2): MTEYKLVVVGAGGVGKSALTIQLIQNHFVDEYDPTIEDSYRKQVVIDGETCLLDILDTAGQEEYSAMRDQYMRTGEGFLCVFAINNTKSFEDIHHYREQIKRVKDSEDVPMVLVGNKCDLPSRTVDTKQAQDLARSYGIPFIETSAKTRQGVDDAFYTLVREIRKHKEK

Regarding `CCc1c(F)ccc2cc(O)cc(-c3ncc4c(N5CCC[C@@](C)(O)C5)nc(OC[C@@]56CCCN5CC(=C(F)F)C6)nc4c3F)c12` (single isomer, unassigned) [Example 918], the concentration for half-maximal inhibition (IC50) in [1] is less than 2 nM; in experiment [2] it was less than 2 nM; in experiment [3], 3 nM; in experiment [4], 4 nM; in experiment [5], 490 nM; in experiment [6] it was 17 nM. The IC50 in [7] was less than 2 nM; in experiment [8], 1 nM; in [9], 5 nM; in [10] it was 3 nM; in experiment [11], less than 2 nM; in [12], less than 2 nM. This molecule had an IC50 in experiment [13] of 12 nM.
As for `CCc1c(F)ccc2cc(O)cc(-c3ncc4c(N5CCC[C@@](C)(O)C5)nc(OC[C@]56CCCN5CC(=C(F)F)C6)nc4c3F)c12` (single isomer, unassigned) [Example 919], the half-inhibitory concentration (IC50) is less than 2 nM in [1]; less than 2 nM in experiment [2]; 14 nM in experiment [3]; 19 nM in [4]; 2480 nM in [5]; 43 nM in experiment [6]. Also, the half-maximal inhibitory concentration (IC50) in experiment [7] was less than 2 nM; in [8] it was 3 nM; in experiment [9] it was 10 nM; in experiment [10] it was 14 nM; in [11] it was less than 2 nM; in [12], less than 2 nM. Also, 37 nM corresponded to half-maximal inhibition in experiment [13] (IC50).
Turning to `C[C@@H]1C[C@@H]1c1c(Cl)cc(O)cc1-c1ncc2c(N3C[C@@H]4C[C@H](C3)[C@H](O)C4)nc(OC[C@@]34CCCN3C[C@H](F)C4)nc2c1F` (stereo in doubt) [Example 920, (1R,5R,6R)-3-(7-(3-chloro-5-hydroxy-2-(cis-2-methylcyclopropyl)phenyl)-8-fluoro-2-(((2R,7aS)-2-fluorotetrahydro-1H-pyrrolizin-7a(5H)-yl)methoxy)pyrido[4,3-d]pyrimidin-4-yl)-3-azabicyclo[3.2.1]octan-6-ol], the concentration for half-maximal inhibition (IC50) is less than 2 nM in [1]; less than 2 nM in [2]; 77 nM in experiment [3]; 19 nM in experiment [4]; 2060 nM in experiment [5]; 42 nM in experiment [6]. The IC50 was 2 nM in experiment [7]; 4 nM in experiment [8]; 15 nM in experiment [9]; 12 nM in experiment [10]; less than 2 nM in [11]; 4 nM in [12]. This molecule yielded an IC50 in [13] of 44 nM.
For `C[C@@H]1C[C@@H]1c1c(Cl)cc(O)cc1-c1ncc2c(N3CCCC4(CNS(=O)(=O)N4)C3)nc(OC[C@@]34CCCN3C[C@H](F)C4)nc2c1F` (stereo in doubt) [Example 929, 7-(7-(3-chloro-5-hydroxy-2-(cis-2-methylcyclopropyl)phenyl)-8-fluoro-2-(((2R,7aS)-2-fluorotetrahydro-1H-pyrrolizin-7a(5H)-yl)methoxy)pyrido[4,3-d]pyrimidin-4-yl)-2-thia-1,3,7-triazaspiro[4.5]decane 2,2-dioxide], the IC50 is less than 2 nM in [1]; less than 2 nM in experiment [2]; 60 nM in experiment [3]; 84 nM in experiment [4]; 397 nM in experiment [5]; 163 nM in [6]. For the same molecule, the concentration for half-maximal inhibition (IC50) in experiment [7] is less than 2 nM; in [8], 17 nM; in [9], 41 nM; in experiment [10] it was 14 nM; in [11] it was less than 2 nM; in [12], 2 nM. Moreover, inhibition in experiment [13] was half-maximal at 137 nM (IC50).
As for `CCc1c(F)ccc2cc(O)cc(-c3ncc4c(N5C[C@@H]6C[C@H](C5)[C@H](O)C6)nc(OCC56CCCN5C/C(=C\F)C6)nc4c3F)c12` (stereo partly drawn) [Example 793, (1R,5R,6R)-3-(7-(8-ethyl-7-fluoro-3-hydroxynaphthalen-1-yl)-8-fluoro-2-(((Z)-2-(fluoromethylene)tetrahydro-1H-pyrrolizin-7a(5H)-yl)methoxy)pyrido[4,3-d]pyrimidin-4-yl)-3-azabicyclo[3.2.1]octan-6-ol], the half-inhibitory concentration (IC50) in [1] is less than 2 nM; in experiment [2], less than 2 nM; in experiment [3] it was 3 nM; in experiment [4], 1 nM; in [5], 246 nM; in [6] it was 3 nM. For the same molecule, the concentration for half-maximal inhibition (IC50) in experiment [7] was less than 2 nM; in [8], 0.3 nM; in [9], 2 nM; in experiment [10], 1 nM; in experiment [11], less than 2 nM; in experiment [12], less than 2 nM. Moreover, in [13], half-maximal inhibition (IC50) required 9 nM.
For `CCc1c(F)ccc2cc(O)cc(-c3ncc4c(N5C[C@@H]6C[C@H](C5)[C@H](O)C6)nc(OC[C@@]56CCCN5C[C@@H](OC)C6)nc4c3F)c12` [Example 925, (1R,5R,6R)-3-(7-(8-ethyl-7-fluoro-3-hydroxynaphthalen-1-yl)-8-fluoro-2-(((2S,7aS)-2-methoxytetrahydro-1H-pyrrolizin-7a(5H)-yl)methoxy)pyrido[4,3-d]pyrimidin-4-yl)-3-azabicyclo[3.2.1]octan-6-ol], the IC50 was 4 nM in experiment [1]; 2 nM in experiment [2]; 826 nM in experiment [3]; more than 10000 nM in experiment [5]; 302 nM in [6]; 3 nM in experiment [7]. Moreover, the results for the IC50 in experiment [8], in experiment [11] and in experiment [12] were 9 nM, 3 nM and 6 nM, respectively.
For the molecule `CCc1c(F)ccc2cc(O)cc(-c3ncc4c(N5C[C@@H]6C[C@H](C5)[C@H](O)C6)nc(OC[C@@]56CCCN5C[C@H](OC)C6)nc4c3F)c12` [Example 926, (1R,5R,6R)-3-(7-(8-ethyl-7-fluoro-3-hydroxynaphthalen-1-yl)-8-fluoro-2-(((2R,7aS)-2-methoxytetrahydro-1H-pyrrolizin-7a(5H)-yl)methoxy)pyrido[4,3-d]pyrimidin-4-yl)-3-azabicyclo[3.2.1]octan-6-ol], the 50% inhibitory concentration (IC50) was less than 2 nM in experiment [1]; less than 2 nM in [2]; 66 nM in experiment [3]; 3000 nM in experiment [5]; 29 nM in experiment [6]; less than 2 nM in experiment [7]. The results for the half-inhibitory concentration (IC50) in experiment [8], in [11] and in experiment [12] were 0.7 nM, less than 2 nM and 2 nM, respectively.
With `CCc1c(F)ccc2cc(O)cc(-c3ncc4c(N5C[C@@H]6C[C@H](C5)[C@H](O)C6)nc(OC[C@@]56CCCN5C[C@@H](F)C6)nc4c3F)c12` [Example 927, (1R,5R,6R)-3-(7-(8-ethyl-7-fluoro-3-hydroxynaphthalen-1-yl)-8-fluoro-2-(((2S,7aS)-2-fluorotetrahydro-1H-pyrrolizin-7a(5H)-yl)methoxy)pyrido[4,3-d]pyrimidin-4-yl)-3-azabicycle[3.2.1]octan-6-ol], the IC50 in experiment [1] is 7 nM; in [2], 4 nM; in experiment [3] it was 468 nM; in [5], more than 10000 nM; in experiment [6] it was 202 nM; in experiment [7] it was 6 nM. Also, the concentration for half-maximal inhibition (IC50) in experiment [8] is 17 nM; in experiment [11] it was 5 nM; in experiment [12], 13 nM.
On to `CCc1c(F)ccc2cc(O)cc(-c3ncc4c(N5C[C@@H]6C[C@H](C5)[C@H](O)C6)nc(OCC56CCCN5C(C)CC6)nc4c3F)c12` (stereo partly drawn) [Example 928, (1R,5R,6R)-3-(7-(8-ethyl-7-fluoro-3-hydroxynaphthalen-1-yl)-8-fluoro-2-((3-methyltetrahydro-1H-pyrrolizin-7a(5H)-yl)methoxy)pyrido[4,3-d]pyrimidin-4-yl)-3-azabicyclo[3.2.1]octan-6-ol], for which the concentration for half-maximal inhibition (IC50) in experiment [1] is less than 2 nM; in [2], less than 2 nM; in [3], 74 nM; in experiment [5], 2840 nM; in experiment [6] it was 33 nM; in experiment [7], less than 2 nM. In addition, the half-maximal inhibitory concentration (IC50) was 3 nM in experiment [8], less than 2 nM in experiment [11] and 2 nM in experiment [12].
